Test results from US5714615A (priority 1994, dated 1998).
Entries after “also recorded” stand apart in the source; their conditions may differ.

How the values were obtained:
DMTS performance = conditions: monkey, in vivo; cited from earlier work
GA = system: GA; set-up: species or system Male ICR mice; conditions: mouse, in vivo
[1] = mouse, in vivo
AChE = type: biochemical, electric eel and human
nicotinic receptor = nicotinic receptor (Rattus norvegicus, UniProt P09483+P12390); assay: biochemical; type: binding
[2] = biological target: T1, electric eel acetylcholinesterase (Electrophorus electricus, UniProt O42275); type: biochemical; conditions: 0.1m phosphate buffer
[3] = biological target: human erythrocyte acetylcholinesterase (Homo sapiens, UniProt P22303); type: biochemical; conditions: erythrocyte ache
[4] = biological target: T1, electric eel acetylcholinesterase; conditions: cited from earlier work
electric eel AChE = electric eel AChE (Electrophorus electricus, UniProt O42275); type: biochemical
human erythrocyte AChE = human erythrocyte AChE (Homo sapiens, UniProt P22303); type: biochemical
in vivo = conditions: mouse, po

Chain of nicotinic receptor (P12390 25-500): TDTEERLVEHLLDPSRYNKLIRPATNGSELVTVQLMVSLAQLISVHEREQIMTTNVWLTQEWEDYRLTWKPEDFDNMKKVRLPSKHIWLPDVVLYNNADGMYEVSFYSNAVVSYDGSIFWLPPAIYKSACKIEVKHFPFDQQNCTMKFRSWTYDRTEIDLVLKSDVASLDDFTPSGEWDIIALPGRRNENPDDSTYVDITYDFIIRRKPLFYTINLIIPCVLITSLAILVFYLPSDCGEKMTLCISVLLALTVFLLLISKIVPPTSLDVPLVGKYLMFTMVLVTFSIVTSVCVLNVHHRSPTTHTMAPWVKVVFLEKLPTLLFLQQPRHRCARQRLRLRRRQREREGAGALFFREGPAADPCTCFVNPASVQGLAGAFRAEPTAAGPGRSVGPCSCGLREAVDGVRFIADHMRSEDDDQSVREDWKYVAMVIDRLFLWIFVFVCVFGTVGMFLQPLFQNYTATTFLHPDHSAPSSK
Chain of nicotinic receptor (P09483 31-630): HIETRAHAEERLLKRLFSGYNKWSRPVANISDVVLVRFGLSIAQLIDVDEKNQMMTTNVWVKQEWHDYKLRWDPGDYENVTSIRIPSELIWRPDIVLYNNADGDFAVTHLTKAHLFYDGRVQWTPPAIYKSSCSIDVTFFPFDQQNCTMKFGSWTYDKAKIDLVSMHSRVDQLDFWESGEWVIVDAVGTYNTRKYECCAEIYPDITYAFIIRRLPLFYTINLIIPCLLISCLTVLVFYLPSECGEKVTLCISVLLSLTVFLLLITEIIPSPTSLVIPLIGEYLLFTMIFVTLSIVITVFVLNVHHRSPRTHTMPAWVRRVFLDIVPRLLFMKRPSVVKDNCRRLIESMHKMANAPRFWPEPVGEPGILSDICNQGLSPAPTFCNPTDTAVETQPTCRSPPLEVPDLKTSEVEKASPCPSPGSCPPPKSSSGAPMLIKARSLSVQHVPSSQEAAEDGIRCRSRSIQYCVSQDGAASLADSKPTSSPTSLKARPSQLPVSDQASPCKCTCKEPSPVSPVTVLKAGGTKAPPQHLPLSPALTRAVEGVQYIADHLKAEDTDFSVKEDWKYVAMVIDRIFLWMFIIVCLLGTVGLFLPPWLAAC
T1 sequence (O42275 24-633): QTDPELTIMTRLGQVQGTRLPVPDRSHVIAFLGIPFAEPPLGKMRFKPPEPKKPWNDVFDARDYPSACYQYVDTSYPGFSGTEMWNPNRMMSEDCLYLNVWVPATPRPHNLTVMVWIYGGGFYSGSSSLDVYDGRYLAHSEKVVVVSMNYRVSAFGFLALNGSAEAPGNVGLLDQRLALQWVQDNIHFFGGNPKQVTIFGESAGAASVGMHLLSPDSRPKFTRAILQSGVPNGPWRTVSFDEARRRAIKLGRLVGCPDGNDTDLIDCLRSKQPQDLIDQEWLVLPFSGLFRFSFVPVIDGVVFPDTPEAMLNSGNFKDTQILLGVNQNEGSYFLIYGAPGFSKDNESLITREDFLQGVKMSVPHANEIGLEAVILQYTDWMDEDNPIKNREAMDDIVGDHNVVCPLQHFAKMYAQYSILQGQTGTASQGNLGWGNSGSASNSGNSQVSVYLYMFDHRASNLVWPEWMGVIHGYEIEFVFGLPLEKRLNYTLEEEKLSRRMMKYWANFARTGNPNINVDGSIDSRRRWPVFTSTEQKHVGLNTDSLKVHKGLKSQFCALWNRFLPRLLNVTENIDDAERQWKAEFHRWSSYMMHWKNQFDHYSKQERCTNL
Chain of human erythrocyte AChE (P22303-2 with tags, fused parts or gaps limits assumed): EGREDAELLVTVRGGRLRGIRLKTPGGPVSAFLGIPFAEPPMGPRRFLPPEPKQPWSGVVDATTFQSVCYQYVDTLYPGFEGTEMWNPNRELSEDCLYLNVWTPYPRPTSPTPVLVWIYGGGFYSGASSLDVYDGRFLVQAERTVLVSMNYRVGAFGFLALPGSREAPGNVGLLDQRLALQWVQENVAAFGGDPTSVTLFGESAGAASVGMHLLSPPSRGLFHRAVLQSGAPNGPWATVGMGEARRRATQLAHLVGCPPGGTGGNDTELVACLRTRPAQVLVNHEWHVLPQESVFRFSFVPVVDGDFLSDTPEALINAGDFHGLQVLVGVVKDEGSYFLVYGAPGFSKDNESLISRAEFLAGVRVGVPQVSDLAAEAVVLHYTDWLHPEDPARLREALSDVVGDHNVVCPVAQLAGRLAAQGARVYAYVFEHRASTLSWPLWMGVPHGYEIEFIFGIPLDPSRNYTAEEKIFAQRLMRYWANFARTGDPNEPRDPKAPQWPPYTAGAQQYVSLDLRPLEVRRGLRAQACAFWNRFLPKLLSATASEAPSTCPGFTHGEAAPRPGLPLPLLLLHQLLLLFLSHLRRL
Chain of electric eel AChE (O42275 24-633): as the sequence (O42275 24-633) above
Chain of human erythrocyte acetylcholinesterase (P22303-2 with tags, fused parts or gaps limits assumed): as the sequence (P22303-2 with tags, fused parts or gaps limits assumed) above

Clc1cccc(Cl)c1N=C1NCCN1 [Clonidine, clonidine]
delay intervals at which DMTS is improved (DMTS performance): improves DMTS performance to the greatest extent at medium delays
duration of DMTS improvement after administration (DMTS performance): at least 24 hr

C[n+]1cc(O)ccc1C=NO [Compound 1g]
% survival (GA): 0%
comparative drug toxicity [1]: small increase in toxicity

C[n+]1cccc(O)c1C=NOCc1ccccc1 [Compound 1b, O-Benzyl-N-(3-hydroxy-1-methyl-2-pyridinemethylene) hydroxylamine chloride]
mode of inhibition of AChE (AChE): pure competitive inhibition
comparative drug toxicity [1]: 1b>1c

C[N+](C)(C)CCOC(N)=O [Carbachol]
IC50 (nicotinic receptor): 699 nM
potency less than nicotine (nicotinic receptor): about 18 fold

C[n+]1cccc(O)c1C=NOCc1ccc(Cl)cc1 [Compound 1d, O-(p-Chlorobenzyl)-N-(3-hydroxy-1-methyl-2-pyridinemethylene) hydroxylamine chloride]
mode of inhibition of AChE (AChE): pure competitive inhibition

CN1CCCC1c1cccnc1 (stereo not shown) [Nicotine]
improvement in DMTS performance (DMTS performance): 5-10 % points

C[n+]1cccc(O)c1C=NNC(=O)Nc1ccccc1.[Cl-] [Compound 3b, 3-Hydroxy-1-methyl-2-[[(N-phenylaminocarbonyl)hydrazono]methyl] pyridinium chloride]
mode of inhibition of AChE (AChE): mixed-type inhibition; also recorded: noncompetitive kinetics

CNC(=O)Oc1ccc2c(c1)[C@]1(C)CCN(C)[C@@H]1N2C [Physostigmine]
kobs/[I] (eel) [2]: 140000 M⁻¹ s⁻¹
kobs/[I] (human) [3]: 19000 M⁻¹ s⁻¹
binding to nicotinic receptors (nicotinic receptor): no selective binding to nicotinic receptors, even at mM concentrations
kobs/[I] (literature value, footnote to eel column) [4]: 18500 M⁻¹ s⁻¹
delay intervals at which DMTS is improved (DMTS performance): acts more evenly across short, medium and long delays
duration of DMTS response (DMTS performance): evokes responses only on the day of administration
improvement in DMTS performance (DMTS performance): 5-10 % points

CON=Cc1c(O)ccc[n+]1C [Compound 1c, O-Methyl-N-(3-hydroxy-1-methyl-2-pyridinemethylene) hydroxylamine chloride]
inhibition of electric eel AChE (electric eel AChE): did not inhibit either enzyme at concentrations up to 1 mM
inhibition of human AChE (human erythrocyte AChE): did not inhibit either enzyme at concentrations up to 1 mM
% survival (GA): 0%
LD50 at 24 h (in vivo): > 3200 µmol/kg

C[n+]1ccccc1C=NOCc1ccccc1 [Compound 1a, O-Benzyl-N-(1-methyl-2-pyridinemethylene) hydroxylamine chloride]
mode of inhibition of AChE (AChE): pure competitive inhibition
comparative drug toxicity [1]: 1a>1b

C[n+]1ccccc1C=NNC(=O)C[n+]1ccccc1 [Compound 5b, 2-(1-Methyl-2-pyridinemethylene)-1-[2-(1-pyridinium)acetyl] hydrazine dichloride]
mode of inhibition of AChE (AChE): mixed-type inhibition; also recorded: At concentrations up to 75 μM, 5b acts as a noncompetitive inhibitor; also recorded: at higher concentrations, 5b is an uncompetitive inhibitor

C[n+]1cccc(O)c1C=NO [Compound 1f]
inhibition of electric eel AChE (electric eel AChE): did not inhibit either enzyme at concentrations up to 1 mM
inhibition of human AChE (human erythrocyte AChE): did not inhibit either enzyme at concentrations up to 1 mM
% survival (GA): 0%
comparative drug toxicity [1]: small increase in toxicity

COc1ccc(CON=Cc2c(O)ccc[n+]2C)cc1 [Compound 1e, O-(p-Methoxybenzyl)-N-(3-hydroxy-1-methyl-2-pyridinemethylene) hydroxylamine chloride]
mode of inhibition of AChE (AChE): pure competitive inhibition

CN(C)C(=O)Oc1ccc[n+](C)c1 [Pyridostigmine, pyridostigmine]
kobs/[I] (literature value, footnote to eel column) [4]: 843 M⁻¹ s⁻¹
